According to ChEMBL document CHEMBL1153997, “Discovery of oxazolo[4,5-b]pyridines and related heterocyclic analogs as novel SIRT1 activators” (Bioorg Med Chem Lett, 2009):

Legend:
[1] = biological target: T1, NAD-dependent protein deacetylase sirtuin-1 (Homo sapiens) (UniProt Q96EB6); assay: Activation of human SIRT1 expressed in Escherichia coli BL21 (DE3) assessed as maximum activation of enzyme activity by fluorescence polarization assay
T1 sequence (whole entry): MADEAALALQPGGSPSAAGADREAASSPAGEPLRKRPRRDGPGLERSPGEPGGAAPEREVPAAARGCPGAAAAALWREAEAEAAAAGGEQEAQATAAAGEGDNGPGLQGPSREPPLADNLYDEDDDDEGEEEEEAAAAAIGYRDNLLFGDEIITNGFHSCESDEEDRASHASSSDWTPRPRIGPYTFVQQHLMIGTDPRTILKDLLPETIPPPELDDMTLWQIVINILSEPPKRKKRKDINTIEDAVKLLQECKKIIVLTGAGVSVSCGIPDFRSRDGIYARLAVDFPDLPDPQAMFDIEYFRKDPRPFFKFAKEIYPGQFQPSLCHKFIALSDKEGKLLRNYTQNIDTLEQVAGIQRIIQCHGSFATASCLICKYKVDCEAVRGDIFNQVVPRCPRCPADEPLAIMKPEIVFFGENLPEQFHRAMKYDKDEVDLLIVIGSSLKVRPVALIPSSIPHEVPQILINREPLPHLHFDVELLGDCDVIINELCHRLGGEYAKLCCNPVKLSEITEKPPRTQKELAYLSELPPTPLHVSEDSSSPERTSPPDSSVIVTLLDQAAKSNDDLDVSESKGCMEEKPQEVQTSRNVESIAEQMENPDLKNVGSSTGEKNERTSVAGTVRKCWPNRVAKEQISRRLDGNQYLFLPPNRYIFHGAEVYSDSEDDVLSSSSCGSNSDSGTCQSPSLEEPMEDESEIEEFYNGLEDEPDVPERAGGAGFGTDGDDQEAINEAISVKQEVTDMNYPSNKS

[2] = biological target: T1, NAD-dependent protein deacetylase sirtuin-1 (Homo sapiens); assay: Activation of human SIRT1 expressed in Escherichia coli BL21 (DE3) assessed as concentration required to increase 50% enzyme activity by fluorescence polarization assay

Row | SMILES | max activation [1] [%] | EC1.5 [2] [µM]
1 | COc1cc(C)ccc1C(=O)Nc1ccc(-c2nc3ncccc3[nH]2)cc1 | 150 | 2.3
2 | COc1cc(OC)cc(C(=O)Nc2ccccc2-c2nc3ccccc3[nH]2)c1 | 180 | 1.7
3 | COc1ccc(C(=O)Nc2ccccc2-c2nc3ccccc3[nH]2)cc1CN1CCOCC1 | 314 | 0.5
4 | O=C(Nc1ccc(CN2CCNCC2)cc1-c1nc2ccccc2[nH]1)c1cnc2ccccc2n1 | 820 | 0.4
5 | COc1cc(C)ccc1C(=O)Nc1ccccc1-c1nc2ncccc2[nH]1 | 250 | 4.1
6 | CN(C)c1ccc(C(=O)Nc2ccccc2-c2nc3ncccc3[nH]2)cc1 | 230 | 0.7
7 | O=C(Nc1ccccc1-c1nc2ccccc2[nH]1)c1cnc2ccccc2n1 | 253 | 0.3
8 | CN(C)c1cccc(C(=O)Nc2ccccc2-c2nc3ncccc3o2)c1 | 209 | 4.4
9 | Oc1ccc(/C=C/c2cc(O)cc(O)c2)cc1 | 200 | –
10 | O=C(Nc1ccccc1-c1nc2ncccc2[nH]1)c1ccc(N2CCOCC2)cc1 | 273 | 0.9

The next lines start with the values.

Row | max activation [1] [%] | EC1.5 [2] [µM] | SMILES
11 | 240 | 1.1 | COc1ccc(C(=O)Nc2cc(CN3CCNCC3)cc(-c3nc4ncccc4o3)c2)cc1OC
12 | 270 | 0.5 | COc1ccc(C(=O)Nc2ccccc2-c2nc3ncccc3[nH]2)cc1OC
13 | 330 | 1.8 | CN(C)CCNC(=O)c1cc(NC(=O)c2cccc(N(C)C)c2)cc(-c2nc3ncccc3o2)c1
14 | 232 | 0.5 | COc1ccc(C(=O)Nc2cccc(-c3nc4ncccc4[nH]3)c2)c(OC)c1
15 | 220 | 0.5 | COc1ccc(C(=O)Nc2cc(CN3CCNCC3)cc(-c3nc4ncccc4o3)c2)c(OC)c1
16 | 200 | 1.1 | COc1ccc(C(=O)Nc2cc(CN(C)C)cc(-c3nc4ncccc4o3)c2)cc1OC
17 | – | > 100 | CN(C)c1cccc(C(=O)Nc2ccc(-c3nc4ncccc4o3)cc2)c1
18 | 240 | 6 | COc1ccc(C(=O)Nc2cccc(-c3nc4ncccc4o3)c2)cc1OC
19 | 180 | 1.6 | COc1ccc(C(=O)Nc2ccc(-c3nc4ncccc4[nH]3)cc2)cc1OC
20 | – | > 100 | COc1ccc(C(=O)Nc2ccc(-c3nc4ncccc4o3)cc2)cc1OC
21 | 324 | 1.4 | COc1ccc(C(=O)Nc2cccc(-c3nc4ncccc4[nH]3)c2)cc1OC
22 | 170 | 0.9 | COc1ccc(C(=O)Nc2ccccc2-c2nc3ncccc3o2)cc1OC
23 | 595 | 0.4 | COc1ccc(C(=O)Nc2ccccc2-c2nc3ccccc3[nH]2)cc1OC
24 | 207 | 25 | CN(C)c1cccc(C(=O)Nc2cccc(-c3nc4ncccc4o3)c2)c1
25 | 240 | 0.7 | COc1ccc(C(=O)Nc2cc(C(=O)NCCN(C)C)cc(-c3nc4ncccc4o3)c2)cc1OC
